Test in all cases: NCI-60 cell line screen, 48 h
The test system of experiment [1] is CAKI-1 renal.
Experiment [2] has as its system HT29 colon.
For experiment [3], the system named is MOLT-4 leukemia.
Experiment [4] has as its system NCI-H226 lung.
For experiment [5], the system named is OVCAR-8 ovarian.
For experiment [6], the system named is SF-268 CNS.
Experiment [7] concerns SF-539 CNS.
The test system of experiment [8] is SW-620 colon.
The subject of experiment [9] is BT-549 breast.
For experiment [10], the system named is DU-145 prostate.

The structures appear in SMILES notation. “And” between values parts separate entries of the source, which are not always exact repeats. Identical values can stand only once.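 Method: 48-hour compound exposure of cells in 96-well plates, five concentrations, linear interpolation of endpoints. The concentration for 50% growth inhibition is given as GI50. TGI marks complete inhibition of growth.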

Regarding `CC[O-].CC[O-].O=C1C=C([O-])C(=O)c2ccccc21.O=C1C=C([O-])C(=O)c2ccccc21.[Ti+4]`, the GI50 is more than 100 µM in [1]; 22.4 µM in [2]; more than 100 µM in [3]; more than 82.8 µM in [4]; more than 100 µM in experiment [5]; more than 100 µM in experiment [6]. Besides, the figures for the GI50 in experiment [7] and in experiment [8] were 100 µM and 90.5 µM, respectively. Also, the TGI in [1], in experiment [2], in experiment [3], in [4], in experiment [5] and in [6] was more than 100 µM each time. The TGI in experiment [7] and in experiment [8] was more than 100 µM throughout.
As to `Cc1[nH]c(=O)n2c(C)nnc2c1C(=O)O`, the TGI in experiment [1], in [2], in experiment [3], in experiment [4], in experiment [5] and in [6] was more than 100 µM throughout. Moreover, the TGI in experiment [7] and in experiment [8] was more than 100 µM each time.
In the case of `CCCCCCCCCCCCC(O)C1CCC(C(O)CCCCC(O)CCCCCC2CC(CC(C)=O)C(=O)O2)O1` (centres undefined), the TGI in [9] was 5.6 µM; in experiment [1], 22.3 µM; in experiment [2] it was 2.65 µM and 15.4 µM; in [3] it was 35 µM; in experiment [4], 4.19 µM and 12.7 µM; in experiment [5] it was 3.48 µM and 20.9 µM. Further, the TGI in experiment [6] is 4.45 µM and 17.1 µM; in [7] it was 21.1 µM; in [8], 25.4 µM. Besides, the GI50 in experiment [1] was 2.29 µM; in experiment [2], 1.37 µM; in experiment [3] it was 1.94 µM and 2.05 µM; in [4], 0.0401 µM; in experiment [5], 1.38 µM; in [6], 1.37 µM. The GI50 is 2.36 µM in experiment [7] and 3.29 µM in experiment [8].
Take `OC1(C(Sc2ccccc2)Sc2ccccc2)CCCCCC1`: the TGI in experiment [1] was 74.9 µM; in [3], more than 100 µM; in experiment [5], more than 100 µM; in experiment [6] it was more than 100 µM; in [7], 64.9 µM; in [8] it was more than 100 µM.
As to `c1cc[n+](Cc2c3ccccc3cc3c2ccc2ccccc23)cc1`, the GI50 in [9] is 1.73 µM; in [10], 6.45 µM; in experiment [2], 2.77 µM; in experiment [3] it was 3.26 µM; in experiment [4], 2.92 µM; in experiment [5] it was 3.49 µM. Moreover, the GI50 was 1.13 µM in experiment [6], 2.55 µM in [7] and 6.16 µM in experiment [8]. Besides, the TGI worked out at 4.6 µM in experiment [9]; 20.4 µM in [10]; 11.2 µM in experiment [2]; 14.7 µM in experiment [3]; 24.8 µM in experiment [4]; 16.1 µM in [5]. Also, the TGI in experiment [6] came out at 5.48 µM; in [7], 10.5 µM; in experiment [8] it was 21.9 µM.
With `O=C(O)c1ccc(CSc2nc3ccccc3[nH]2)cc1`, the GI50 in experiment [1], in experiment [10], in experiment [2], in [3], in [4] and in experiment [5] was more than 100 µM throughout. For the same compound, the GI50 in experiment [6], in [7] and in experiment [8] was more than 100 µM in each case. Besides, the TGI in experiment [1], in experiment [10], in experiment [2], in experiment [3], in experiment [4] and in [5] was more than 100 µM throughout. In addition, the TGI in experiment [6], in experiment [7] and in experiment [8] was more than 100 µM in each case.
In the case of `COC(=O)c1cc(O)ccc1O`, the TGI in experiment [1], in experiment [2], in experiment [3], in experiment [4], in experiment [5] and in experiment [6] was more than 100 µM throughout. The TGI in experiment [7] and in experiment [8] was more than 100 µM in each case.
Regarding `CC(=O)OC(C(=O)[O][Ge]([CH3])([CH3])[CH3])c1ccccc1` (centres undefined), the GI50 in [1], in experiment [2], in [4], in [5], in experiment [6] and in experiment [7] was more than 100 µM in each case. Further, in experiment [8], the GI50 is more than 100 µM. Further, the TGI in [1], in [2], in experiment [4], in experiment [5], in [6] and in experiment [7] was more than 100 µM each time. Besides, in [8], the TGI was more than 100 µM.
Turning to `CC(=O)Oc1ccc2c(=O)c(C(C)=O)coc2c1`, the TGI in experiment [1], in experiment [2], in [3], in experiment [4], in experiment [5] and in [6] was more than 100 µM each time. In addition, the TGI in [7] and in experiment [8] was more than 100 µM each time.
`CCOC(=O)C(C(=O)OCC)=C1C=C(c2ccccc2)c2ccccc21`: the TGI in experiment [2], in experiment [3], in [4], in [5], in [6] and in experiment [7] was more than 100 µM throughout. The TGI in experiment [8] was more than 100 µM.
In the case of `CCCCCOC(=O)Nc1nc(=O)n(C2OC(C)C(O)C2O)cc1F` (centres undefined), the GI50 in experiment [1], in experiment [2], in experiment [3], in [5], in [6] and in [7] was more than 10000 µM throughout. In addition, the GI50 in experiment [8] was more than 10000 µM. Also, the TGI in [1], in [2], in experiment [3], in [5], in experiment [6] and in experiment [7] was more than 10000 µM throughout. Further, the TGI in [8] was more than 10000 µM.

(Values after PubChem BioAssay (NCI).)
